Laboratory results from article PMC10321576, “Cyclic peptides target the aromatic cage of a PHD-finger reader domain to modulate epigenetic protein function” (Chemical Science, 2023).
Like-named read-outs stand apart in the source and are kept apart here. Each block holds one molecule with its values, some of them ahead of it. Ends that are not written are not given here. Peptide text beside a SMILES is read from it.

Tests used:
KDM7A dual domain = KDM7A dual domain (Homo sapiens, UniProt Q6ZMT4); test: MALDI-TOF-MS KDM7 activity assay (H3 peptide demethylation); type: biochemical
Method: Fig. 5 KDM7 PHD-finger inhibition by OC9 modulates dual domain JmjC activity. (a) (i–iii) OC9 inhibits demethylation of H3K9me2, with or without K4me3, by KDM7B (0.4 μM) on H3 peptide (2.5 μM). […] (b) (i–iii) OC9 enhances demethylation of H3K4me3K9me2 by KDM7A (0.55 μM) on H3 peptide (2.5 μM), and (iv) enhances KDM7A (0.5 μM) demethylation of calf histone extracts (50 μg). […] Inset MALDI-TOF-MS overlays are from respective highest OC9 concentration points compared to DMSO alone. KDM7 PHD-finger only proteins had no demethylase activity (Fig. S40 ^†). Calf histone H3K9me2 was quantitated relative to H4 band intensities at each time point, normalised to DMSO at t = 0. Full Western blots available in Fig. S42. ^† Relative rates (Krel min^−1) from a one-phase decay model, average from N = 3 independent experiments. […] The enzyme heading of the panel (KDM7B / KDM7A) was put in front of them. / DMSO is the vehicle control. Its printed rates (0.30 min^-1 in a, 0.04 min^-1 in b) are included because they are printed with its name.
In contrast to KDM7B, KDM7A lacks activity against H3K4me3K9me2, but demethylates H3_1–21K9me2.[57] OC9, however, restored the activity of KDM7A against H3_1–21K4me3K9me2 from <5% to a level (∼30%) that approached demethylation on H3_1–21K9me2 with DMSO alone (∼40%) (Fig. 5b and S39 ^†). […]

KDM7B Dual = target: T1, KDM7B Dual (Homo sapiens, UniProt Q9UPP1); test: ITC binding
T1 construct: Dual = PHD+JmjC; made in house
Method: Figure S10. ITC results: Tabulated values from 1:1 binding model and conditions
ITC buffer = 50 mM HEPES, 100 mM NaCl, pH 7.4, 0.2 µm filtered), at 25 °C. Dual = PHD+JmjC. HisTrx
= His 6+thioredoxin tag, GST = glutathione S -transferase tag, ZB = Z -basic tag. Syringe contained
peptide solution in buffer. Cell contained protein solution in buffer.
(§1) (1 picture or pasted object on this page, not shown here)

KDM7B dual domain = target: T2, KDM7B dual domain (Homo sapiens, UniProt Q9UPP1); test: HDX-MS; type: binding; conditions: relative to DMSO
T2 construct: dual domain (PHD-JmjC) of KDM7B; His-tag (C); made in house
Description: To further evaluate the interactions of OC9 with KDM7B we used hydrogen–deuterium exchange mass spectrometry (HDX-MS), which informs on protein dynamics by following deuterium incorporation into the protein amide backbone (Fig. 2).
The residue level view was generated by averaging mass changes across overlapping peptide fragments. Supporting data available in ESI. ^† K4me3 binding aromatic cage residues (‘YYMW’ Fig. 1a) are indicated by red asterix.

KDM7B Dual (PHD+JmjC) = target: T3, KDM7B Dual (PHD+JmjC) (Homo sapiens, UniProt Q9UPP1); test: BLI binding; design: key to BLI Screening, KDM7B Dual: (+) = binding; (-) = no binding; (NS) = non-specific; conditions: for koff / kon / Kd: 1:1 binding model; for Kd: His-tagged protein on Ni-NTA biosensors; for BLI Screening, KDM7B Dual: qualitative assessment of binding by BLI
T3 construct: Dual domain = PHD+JmjC; made in house
Description: (§2) Figure S2. BLI for KDM7 proteins with cyclic peptides.
(§3) BLI traces for b inding to KDM7 protein domains immobilised by C-terminal His -tag on Ni -NTA
(§4) biosensors, against cyclic peptides. Response trace for each peptide concentration is represented by
(§5) a different colour, with the fitted curves overlaid in black.
(§6) concentration plotted, with 2-fold dilutions thereafter. Dual domain = PHD+JmjC. […]
(§7) against KDM7 and other protein domains. t1/2 = half life (0.693 / Koff)
as §1

KDM7B JmjC = target: T4, KDM7B JmjC (Homo sapiens, UniProt Q9UPP1); test: BLI binding; design: key to BLI Screening, KDM7B JmjC: (+) = binding; (-) = no binding; (NS) = non-specific; conditions: for Kd: read-out: BLI pKD, KDM7B JmjC (converted); for BLI Screening, KDM7B JmjC: qualitative assessment of binding by BLI
T4 construct: made in house
Description: as §2, §3, §4, §5, §6, §7, §1

KDM7B PHD [1] = target: T5, KDM7B PHD (Homo sapiens, UniProt Q9UPP1); test: BLI binding; design: key to BLI Screening, KDM7B PHD: (+) = binding; (-) = no binding; (NS) = non-specific; conditions: for BLI Screening, KDM7B PHD: qualitative assessment of binding by BLI
T5 construct: KDM7B 1-66; made in house
T5 sequence (Q9UPP1 1-66 isoform Q9UPP1-2): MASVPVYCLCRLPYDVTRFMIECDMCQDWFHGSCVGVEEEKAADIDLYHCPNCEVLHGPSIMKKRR
Description: as §2, §3, §4, §5, §6, §7, §1

KDM7B PHD [2] = target: T5, KDM7B PHD; test: AlphaScreen displacement of H3 1-21K4me3-Bt; type: binding; conditions: for reduced potency relative to OC9: affinity (BLI) and displacement (AS) assays, KDM7B PHD-finger
Description: The functional effect of OC9 on the PHD-finger was further assessed using an AlphaScreen (AS) based proximity assay. […]

[3] = His-tagged protein on Ni-NTA biosensors, 1:1 binding model, read-out: BLI KD, KDM7B PHD

T4 sequence (Q9UPP1 231-387 limits assumed): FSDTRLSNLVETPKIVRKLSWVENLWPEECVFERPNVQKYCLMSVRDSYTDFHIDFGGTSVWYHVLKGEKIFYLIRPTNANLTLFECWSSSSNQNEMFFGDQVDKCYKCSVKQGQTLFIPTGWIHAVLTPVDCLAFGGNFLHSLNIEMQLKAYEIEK
T3 sequence (Q9UPP1 37-483 limits assumed): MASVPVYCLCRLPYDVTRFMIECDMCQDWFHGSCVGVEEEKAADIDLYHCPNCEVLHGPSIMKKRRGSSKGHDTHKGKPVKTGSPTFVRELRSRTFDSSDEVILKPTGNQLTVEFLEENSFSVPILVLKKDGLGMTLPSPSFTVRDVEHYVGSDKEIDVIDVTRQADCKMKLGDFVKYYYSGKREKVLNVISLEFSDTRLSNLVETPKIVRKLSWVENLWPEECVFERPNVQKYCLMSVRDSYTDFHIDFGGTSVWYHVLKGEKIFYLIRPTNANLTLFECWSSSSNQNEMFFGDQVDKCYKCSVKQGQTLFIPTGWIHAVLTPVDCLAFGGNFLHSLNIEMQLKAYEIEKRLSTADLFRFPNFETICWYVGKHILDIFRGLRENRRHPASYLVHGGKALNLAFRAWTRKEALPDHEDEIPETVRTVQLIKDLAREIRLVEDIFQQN
T1 sequence (Q9UPP1 37-483 limits assumed): as above
Chain of KDM7A dual domain (Q6ZMT4 38-480 limits assumed): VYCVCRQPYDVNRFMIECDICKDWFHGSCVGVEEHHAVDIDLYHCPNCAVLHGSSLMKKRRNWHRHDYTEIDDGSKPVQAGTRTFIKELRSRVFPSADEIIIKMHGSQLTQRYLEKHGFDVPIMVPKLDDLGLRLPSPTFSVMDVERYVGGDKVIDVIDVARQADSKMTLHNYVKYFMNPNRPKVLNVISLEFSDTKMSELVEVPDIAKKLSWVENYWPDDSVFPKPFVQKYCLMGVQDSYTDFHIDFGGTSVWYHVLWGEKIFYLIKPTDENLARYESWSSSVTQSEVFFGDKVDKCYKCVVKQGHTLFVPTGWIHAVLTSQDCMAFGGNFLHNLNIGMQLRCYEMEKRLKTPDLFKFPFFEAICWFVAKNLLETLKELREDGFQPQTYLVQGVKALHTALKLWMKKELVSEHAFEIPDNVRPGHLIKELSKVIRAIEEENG
T2 sequence (Q9UPP1 37-483 limits assumed): as the sequence (Q9UPP1 37-483 limits assumed) above

Molecule: CN(C)NC(=O)CCC(=O)O [DAM, daminozide, reference compound]
IC50 (KDM7A dual domain): 251 nM

Kd (KDM7B Dual; 50 mM HEPES, 100 mM NaCl, pH 7.4, 25 °C, 1:1 binding model): 163 nM | ITC ΔH, KDM7B Dual (KDM7B Dual; 25 °C): -16.3 ± 1.5 kJ mol -1 | ITC N, KDM7B Dual (KDM7B Dual; stoichiometry): 1.37 ± 0.05 | koff (KDM7B Dual (PHD+JmjC)): 0.0148 ± 0.0001 s⁻¹ | kon (KDM7B Dual (PHD+JmjC)): 502000 ± 5000 M⁻¹ s⁻¹ | Kd (KDM7B Dual (PHD+JmjC)): 29.5 nM | BLI Screening, KDM7B Dual (KDM7B Dual (PHD+JmjC)): + | Kd (KDM7B JmjC; 1:1 binding model): > 1000 nM | BLI Screening, KDM7B JmjC (KDM7B JmjC): - | Kd (KDM7B PHD [1]; [3]): > 1000 nM | BLI Screening, KDM7B PHD (KDM7B PHD [1]): -
Molecule: CC[C@H](C)[C@@H]1NC(=O)[C@H](CC(C)C)NC(=O)[C@H](CCCNC(=N)N)NC(=O)[C@H](CCCNC(=N)N)NC(=O)[C@@H]2CCCN2C(=O)[C@H](Cc2ccc(O)cc2)NC(=O)[C@H](C(C)C)NC(=O)[C@H](CC(C)C)NC(=O)[C@H](CC(C)C)NC(=O)[C@H](C(C)C)NC(=O)[C@@H]2CCCN2C(=O)[C@H](Cc2ccc(O)cc2)NC(=O)CSC[C@@H](C(N)=O)NC1=O [OC3] (HELM PEPTIDE1{[O=C(C[*:3])[*:2]].Y.P.V.L.L.V.Y.P.R.R.L.I.C.[am]}$PEPTIDE1,PEPTIDE1,1:R3-14:R3$$$V2.0)
HDX-MS effect on deuterium uptake, KDM7B dual domain (KDM7B dual domain): affected deuterium uptake in both domains

koff (KDM7B Dual (PHD+JmjC)): 0.0124 ± 0.0001 s⁻¹ | kon (KDM7B Dual (PHD+JmjC)): 212000 ± 2000 M⁻¹ s⁻¹ | Kd (KDM7B Dual (PHD+JmjC)): 58.6 nM | BLI Screening, KDM7B Dual (KDM7B Dual (PHD+JmjC)): + | koff (KDM7B JmjC; 1:1 binding model): 0.0245 ± 0.0001 s⁻¹ | kon (KDM7B JmjC; 1:1 binding model): 249000 ± 3000 M⁻¹ s⁻¹ | Kd (KDM7B JmjC; 1:1 binding model): 100 nM | BLI Screening, KDM7B JmjC (KDM7B JmjC): + | Kd (KDM7B PHD [1]; [3]): > 1000 nM | BLI Screening, KDM7B PHD (KDM7B PHD [1]): -
Molecule: CC[C@H](C)[C@@H]1NC(=O)[C@H](Cc2c[nH]c3ccccc23)NC(=O)[C@H](CO)NC(=O)[C@H](CC(C)C)NC(=O)[C@H](Cc2ccc(O)cc2)NC(=O)[C@H](Cc2ccc(O)cc2)NC(=O)[C@H]([C@@H](C)O)NC(=O)CNC(=O)[C@H](Cc2ccc(O)cc2)NC(=O)[C@H](C(C)C)NC(=O)[C@H](Cc2ccc(O)cc2)NC(=O)CSC[C@@H](C(N)=O)NC(=O)[C@@H]2CCCN2C1=O [OC4] (HELM PEPTIDE1{[O=C(C[*:3])[*:2]].Y.V.Y.G.T.Y.Y.L.S.W.I.P.C.[am]}$PEPTIDE1,PEPTIDE1,1:R3-14:R3$$$V2.0)

reduced potency relative to OC9 (KDM7B PHD [2]): much weaker | faster off-rate by BLI (vs OC9) (KDM7B PHD [1]): ~100 ×
Molecule: CC(C)C[C@@H]1NC(=O)[C@H](Cc2ccc(O)cc2)NC(=O)[C@H](Cc2ccc(O)cc2)NC(=O)CSC[C@@H](C(N)=O)NC(=O)[C@H]([C@@H](C)O)NC(=O)[C@H](C)NC(=O)[C@H](Cc2ccccc2)NC(=O)[C@H](C(C)C)NC(=O)[C@H](CO)NC(=O)[C@@H]2CCCN2C(=O)[C@H](Cc2ccc(O)cc2)NC(=O)[C@@H]2CCCN2C(=O)[C@H](Cc2c[nH]cn2)NC(=O)[C@H]([C@@H](C)O)NC1=O [R12A] (HELM PEPTIDE1{[O=C(C[*:3])[*:2]].Y.Y.L.T.H.P.Y.P.S.V.F.A.T.C.[am]}$PEPTIDE1,PEPTIDE1,1:R3-15:R3$$$V2.0; C-terminus assumed)

reduced potency relative to OC9 (KDM7B PHD [2]): much weaker
Molecule: CC(C)C[C@@H]1NC(=O)[C@H](Cc2ccc(O)cc2)NC(=O)[C@H](Cc2ccc(O)cc2)NC(=O)CSC[C@@H](C(N)=O)NC(=O)[C@H]([C@@H](C)O)NC(=O)[C@H](CCCNC(=N)N)NC(=O)[C@H](Cc2ccccc2)NC(=O)[C@H](C(C)C)NC(=O)[C@H](C)NC(=O)[C@@H]2CCCN2C(=O)[C@H](Cc2ccc(O)cc2)NC(=O)[C@@H]2CCCN2C(=O)[C@H](Cc2c[nH]cn2)NC(=O)[C@H]([C@@H](C)O)NC1=O [S9A] (HELM PEPTIDE1{[O=C(C[*:3])[*:2]].Y.Y.L.T.H.P.Y.P.A.V.F.R.T.C.[am]}$PEPTIDE1,PEPTIDE1,1:R3-15:R3$$$V2.0; C-terminus assumed)

IC50 (KDM7B PHD [2]; read-out: IC50^AS, KDM7B PHD-finger): > 10 µM | Kd (KDM7B PHD [1]; read-out: BLI KD, KDM7B PHD-finger): > 10000 nM
Molecule: CC(C)C[C@@H]1NC(=O)[C@H](Cc2ccc(O)cc2)NC(=O)[C@H](Cc2ccc(O)cc2)NC(=O)CSC[C@@H](C(N)=O)NC(=O)[C@H]([C@@H](C)O)NC(=O)[C@H](CCCNC(=N)N)NC(=O)[C@H](Cc2ccccc2)NC(=O)[C@H](CCCCN)NC(=O)[C@H](CO)NC(=O)[C@@H]2CCCN2C(=O)[C@H](Cc2ccc(O)cc2)NC(=O)[C@@H]2CCCN2C(=O)[C@H](Cc2c[nH]cn2)NC(=O)[C@H]([C@@H](C)O)NC1=O [V10K] (HELM PEPTIDE1{[O=C(C[*:3])[*:2]].Y.Y.L.T.H.P.Y.P.S.K.F.R.T.C.[am]}$PEPTIDE1,PEPTIDE1,1:R3-15:R3$$$V2.0; C-terminus assumed)

reduction in IC50^AS compared to OC9 (KDM7B PHD [2]): 10 fold | reduction in KD in BLI compared to OC9 (KDM7B PHD [1]): > 80 fold | reduction in t1/2 in BLI compared to OC9 (KDM7B PHD [1]): > 75 fold
Molecule: CC(C)C[C@@H]1NC(=O)[C@H](CO)NC(=O)[C@@H]2CCCN2C(=O)[C@H](Cc2ccc(O)cc2)NC(=O)[C@@H]2CCCN2C(=O)[C@H](Cc2c[nH]cn2)NC(=O)[C@H]([C@@H](C)O)NC(=O)[C@H](CC(C)C)NC(=O)[C@H](Cc2ccc(O)cc2)NC(=O)[C@H](Cc2ccc(O)cc2)NC(=O)CSC[C@@H](C(N)=O)NC(=O)[C@H]([C@@H](C)O)NC(=O)[C@H](CCCNC(=N)N)NC(=O)[C@H](Cc2ccccc2)NC1=O [V10L] (HELM PEPTIDE1{[O=C(C[*:3])[*:2]].Y.Y.L.T.H.P.Y.P.S.L.F.R.T.C.[am]}$PEPTIDE1,PEPTIDE1,1:R3-15:R3$$$V2.0; C-terminus assumed)

reduced potency relative to OC9 (KDM7B PHD [2]): > 100 fold
Molecule: Ac-YYLTHPYPSVFRTC-NH2 (N-terminus and C-terminus assumed) [Linear]

BLI Screening, KDM7B Dual (KDM7B Dual (PHD+JmjC)): -
Molecule: YIVPSPIWYHWVAC (also: sidechain bridge or staple (positions not given here)) [OC10]

BLI Screening, KDM7B Dual (KDM7B Dual (PHD+JmjC)): NS | BLI Screening, KDM7B JmjC (KDM7B JmjC): NS | BLI Screening, KDM7B PHD (KDM7B PHD [1]): NS
Molecule: YLVRIYPNKLIWWC (also: sidechain bridge or staple (positions not given here)) [OC6, enriched cyclic peptide, non-specific in BLI]

BLI Screening, KDM7B Dual (KDM7B Dual (PHD+JmjC)): -
Molecule: YPYILYPSVYTTNC (also: sidechain bridge or staple (positions not given here)) [OC8]
